Test results as given in patent US20250145595A1, “ANTAGONISTS OF THE MUSCARINIC ACETYLCHOLINE RECEPTOR M4” (Vanderbilt University, priority 2021, published 2025).

Legend:
Human M4 = target: T1, Human M4 (Homo sapiens, UniProt P08173); test: mAChR M4 cell-based functional assay (calcium flux, antagonism of EC80 acetylcholine response, M4/Gqi5/CHO-K1 cells); details: % ACh maximum at 30 μM
T1 construct: expressed in transfected cells; host or cells: CHO-K1 (ATCC), stably co-transfected with Gqi5
T1 sequence (P08173 1-479): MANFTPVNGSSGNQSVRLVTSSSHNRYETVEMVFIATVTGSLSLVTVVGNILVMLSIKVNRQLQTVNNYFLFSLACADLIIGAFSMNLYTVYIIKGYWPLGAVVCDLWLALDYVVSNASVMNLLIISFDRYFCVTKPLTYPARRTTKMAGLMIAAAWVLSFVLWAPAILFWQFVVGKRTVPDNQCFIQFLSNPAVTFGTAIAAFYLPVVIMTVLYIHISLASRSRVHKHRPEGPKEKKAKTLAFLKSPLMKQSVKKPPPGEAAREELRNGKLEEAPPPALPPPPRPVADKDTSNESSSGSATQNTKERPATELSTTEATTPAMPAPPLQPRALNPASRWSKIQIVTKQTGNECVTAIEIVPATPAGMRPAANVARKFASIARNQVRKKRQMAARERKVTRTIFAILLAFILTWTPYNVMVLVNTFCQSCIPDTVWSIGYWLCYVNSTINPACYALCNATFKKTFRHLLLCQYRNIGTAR
Protocol: Human or rat M4 cDNA, along with the chimeric G protein Gqi5, were transfected into Chinese hamster ovary (CHO-K1) cells purchased from the American Type Culture Collection using Lipofectamine2000. M4/Gqi5/CHO cells were grown in Ham's F-12 medium containing 10% heat-inactivated fetal bovine serum (FBS), 20 mM HEPES, 500 μg/mL G418 sulfate, and 200 μg/mL Hygromycin B.
For high throughput measurement of agonist-evoked increases in intracellular calcium, CHO-K1 cells stably expressing muscarinic receptors were plated in growth medium lacking G^418 and hygromycin at 15,000 cells/20 μL/well in Greiner 384-well black-walled, tissue culture (TC)-treated, clear-bottom plates (VWR). Cells were incubated overnight at 37° C. and 5% CO2. The next day, cells were washed using an ELX 405 (BioTek) with assay buffer; the final volume was then aspirated to 20 μL. Next, 20 μL of a […] of Fluo-4/acetoxymethyl ester (Invitrogen, Carlsbad, CA), prepared as a 2.3 mM stock in DMSO and mixed in a 1:1 ratio with 10% (w/v) Pluronic F-127 and diluted in assay buffer, was added to the wells and the cell plates were incubated for 50 min at 37° C. and 5% CO2. Dye was removed by washing with the ELX 405 and the final volume was aspirated to 20 μL. Compound master plates were formatted in a 10-point concentration-response curve (CRC) format (1:3 dilutions) in 100% DMSO with a starting concentration of 10 or 1 mM using a BRAVO liquid handler (Agilent). Test compound CRCs were then transferred to daughter plates (240 nL) using the Echo acoustic plate reformatter (Labcyte, Sunnyvale, CA) and then diluted into assay buffer (40 μL) to a 2× stock using a Thermo Fisher Combi (Thermo Fisher Scientific, Waltham, MA).
Calcium flux was measured using the Functional Drug Screening System (FDSS) 6000 or 7000 (Hamamatsu Corporation, Tokyo, Japan) as an increase in the fluorescent static ratio. Compounds were applied to cells (20 μL, 2×) using the automated system of the FDSS at 2 seconds into the protocol and the data were collected at 1 Hz. At 143 s, 10 μL of an EC20 concentration of the muscarinic receptor agonist acetylcholine was added (5×), followed by the addition of 12 μL of an EC80 concentration of acetylcholine at the 268 s time point (5×). Agonist activity was analyzed as a concentration-dependent increase in calcium mobilization upon compound addition. Positive allosteric modulator activity was analyzed as a concentration-dependent increase in the EC20 acetylcholine response. Antagonist activity was analyzed as a concentration-dependent decrease in the EC80 acetylcholine response; for the purposes of the tables herein, an IC50 (inhibitory concentration 50) was calculated as a concentration-dependent decrease of the response elicited by an EC80 concentration of acetylcholine. Concentration-response curves were generated using a four-parameter logistical equation in XLFit curve fitting software (IDBS, Bridgewater, NJ) for Excel (Microsoft, Redmond, WA) or Prism (GraphPad Software, Inc., San Diego, CA) or the Dotmatics software platform (Dotmatics, Bishop's Stortford, UK).
Compounds were synthesized as described above. Activity (IC50 and Emin) was determined in the mAChR M4 cell-based functional assay as described above and the data are shown in Table 2.

Human M1 = target: T2, Human M1 (Homo sapiens, UniProt P11229); test: mAChR M1 cell-based functional assay (calcium flux, antagonism of EC80 acetylcholine response, hM1 CHO-K1 cells); details: compound 61 versus compound 62, data of Table 3
T2 sequence (P11229 1-460): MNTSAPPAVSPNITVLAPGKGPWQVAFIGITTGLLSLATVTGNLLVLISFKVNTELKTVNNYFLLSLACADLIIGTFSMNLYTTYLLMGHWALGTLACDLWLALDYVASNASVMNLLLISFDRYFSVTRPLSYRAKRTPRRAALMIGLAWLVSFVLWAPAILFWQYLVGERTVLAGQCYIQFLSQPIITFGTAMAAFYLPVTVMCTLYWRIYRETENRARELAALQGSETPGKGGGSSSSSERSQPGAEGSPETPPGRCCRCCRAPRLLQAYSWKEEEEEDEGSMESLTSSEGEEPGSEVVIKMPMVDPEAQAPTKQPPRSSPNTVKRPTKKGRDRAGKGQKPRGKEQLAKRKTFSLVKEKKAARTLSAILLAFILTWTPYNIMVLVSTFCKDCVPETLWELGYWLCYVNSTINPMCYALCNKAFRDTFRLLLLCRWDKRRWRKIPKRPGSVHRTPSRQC
Protocol: hM1 cDNA was purchased from Missouri S&T cDNA Resource and used to stably transfect CHO-K1 cells purchased from the American Type Culture Collection using Lipofectamine2000. hM1 cells were grown in Ham's F-12 medium containing 10% heat-inactivated fetal bovine serum (FBS), 20 mM HEPES, and 50 μg/mL G418 sulfate.
For high throughput measurement of agonist-evoked increases in intracellular calcium, CHO-K1 cells stably expressing muscarinic receptors were plated in growth medium lacking G418 and hygromycin at 15,000 cells/20 μL/well in Greiner 384-well black-walled, tissue culture (TC)-treated, clear-bottom plates (VWR). Cells were incubated overnight at 37° C. and 5% CO2. […]
Calcium flux was measured using the Functional Drug Screening System (FDSS) 6000 (Hamamatsu Corporation, Tokyo, Japan) as an increase in the fluorescent static ratio. […] Agonist activity was analyzed as a concentration-dependent increase in calcium mobilization upon compound addition. […] Positive allosteric modulator activity was analyzed as a concentration-dependent increase in the EC20 acetylcholine response. Antagonist activity was analyzed as a concentration-dependent decrease in the EC80 acetylcholine response; for the purposes of the tables herein, an IC50 (inhibitory concentration 50) was calculated as a concentration-dependent decrease of the response elicited by an EC80 concentration of acetylcholine. […]

[1] = test system: catalepsy induced by the DA receptor antagonist haloperidol; details: cited from earlier work

Row | SMILES | Human M4 Emin (Human M4) [%] | other results
1 | [2H]C([2H])(C1CCOC(C)(C)C1)N1C[C@H]2C[C@H](Nc3ccc(-c4cnccc4C(F)(F)F)nn3)C[C@H]2C1 (single isomer, unassigned) [Compound 58] | 3 | –
2 | [2H]C1([2H])CC(C([2H])([2H])N2C[C@H]3C[C@H](Nc4nnc(-c5cnccc5C(F)(F)F)cc4C)C[C@H]3C2)CC([2H])([2H])O1 [Compound 18, (3aR,5s,6aS)-N-(4-methyl-6-(4-(trifluoromethyl)pyridin-3-yl)pyridazin-3-yl)-2-((tetrahydro-2H-pyran-4-yl-2,2,6,6-d4)methyl-d2)octahydrocyclopenta[c]pyrrol-5-amine] | 4 | –
3 | [2H]C1([2H])CC(C([2H])([2H])N2C[C@H]3C[C@H](Nc4nnc(-c5cnccc5C(F)(F)F)cc4OC)C[C@H]3C2)CC([2H])([2H])O1 [Compound 22, (3aR,5s,6aS)-N-(4-methoxy-6-(4-(trifluoromethyl)pyridin-3-yl)pyridazin-3-yl)-2-((tetrahydro-2H-pyran-4-yl-2,2,6,6-d4)methyl-d2)octahydrocyclopenta[c]pyrrol-5-amine] | 2 | –
4 | [2H]C([2H])([C@@H]1CCCOC1)N1C[C@H]2C[C@H](Nc3ccc(-c4cccnc4C(F)(F)F)nn3)C[C@H]2C1 [Compound 47, (3aR,5s,6aS)-2-(((S)-tetrahydro-2H-pyran-3-yl)methyl-d2)-N-(6-(2-(trifluoromethyl)pyridin-3-yl)pyridazin-3-yl)octahydrocyclopenta[c]pyrrol-5-amine] | 2 | –
5 | [2H]C([2H])([C@H]1CCCCO1)N1C[C@H]2C[C@H](Nc3ccc(-c4cccnc4C(F)(F)F)nn3)C[C@H]2C1 [Compound 49, (3aR,5s,6aS)-2-(((R)-tetrahydro-2H-pyran-2-yl)methyl-d2)-N-(6-(2-(trifluoromethyl)pyridin-3-yl)pyridazin-3-yl)octahydrocyclopenta[c]pyrrol-5-amine] | 2 | –
6 | [2H]C([2H])([C@H]1CCOC(C)(C)C1)N1C[C@H]2C[C@H](Nc3ccc(-c4cccnc4C(F)(F)F)nn3)C[C@H]2C1 [Compound 61, (3aR,5s,6aS)-2-(((S)-2,2-dimethyltetrahydro-2H-pyran-4-yl)methyl-d2)-N-(6-(2-(trifluoromethyl)pyridin-3-yl)pyridazin-3-yl)octahydrocyclopenta[c]pyrrol-5-amine] | – | remaining activity at 30 µM (Human M4; CHO-K1, read-out: Human M4 Emin): 8%; human mAChR M1 antagonist activity (comparison in words) (Human M1): less human mAChR M1 antagonist activity than compound 62
7 | CN1[C@@H]2C[C@@H](OC(=O)[C@H](CO)c3ccccc3)C[C@H]1[C@@H]1O[C@@H]12 [scopolamine] | – | reduction of haloperidol-induced catalepsy ([1]; M4KO mice): ineffective in reducing catalepsy; reversal of haloperidol-induced catalepsy ([1]; WT mice): completely reversed
